Measurements: patent EP4755375A1, “PHARMACEUTICAL COMPOSITION CONTAINING SUBSTITUTED INDOL-5-OL DERIVATIVE AND USE THEREOF” (Changshan Conjuchem Biopharmaceutical Research and …, priority 2023, dated 2025)
≈ marks a conversion by molar mass, not a printed value.

Legend:
[1] = Saturated solubility of API in different solvents/media; type: physicochemical; settings: for solubility at 24 h: organic solvent or mixture, thermodynamic from solid, room temperature
Procedure: The saturated solubility of the compound of the present invention in different solvents/media is shown in Table 1 (Test method: An appropriate excess amount of API was placed in an appropriate amount of solvent and shaken at room temperature for 24 hours, after which the sample solution was processed and analyzed). Among them, methanol and acetone are the optimal choices. Table 1 Saturated Solubility of the Compound of the Present Invention in Different Solvents/Media

[2] = Dog PK experiment for tablets; type: in vivo; settings: plasma, beagle dogs (male, fasted), oral, dose 5 mg/kg
Procedure: Example 59 and Example 60 were orally administered to beagle dogs (male, fasted, 3 dogs per group) at a dose of about 5 mg/kg. Example 65 was orally administered to beagle dogs (half male and half female, fasted, 8 dogs) at a dose of 50 mg/animal (about 5 mg/kg). Whole blood samples of 0.3 mL were collected at 0 min, 10 min, 15 min, 30 min, 1 h, 2 h, 3 h, 4 h, 6 h, 8 h, 12 h, and 24 h after administration. The blood samples were placed in anticoagulant tubes, gently inverted several times, and then kept on wet ice in preparation for centrifugation. Within 30 minutes after collection, the samples were centrifuged at about 2000 × g (force) at 4°C for 10 minutes to obtain plasma. The resulting plasma samples were immediately divided into two aliquots (about 75 µL each) and transferred to cryovials. The samples were maintained on wet ice throughout the processing and stored in a freezer at -75 ± 15°C until analysis. The concentrations of the test substance in the plasma samples were analyzed using an LC-MS/MS method. Table 51 Summary of Dog PK Data for Tablets

[3] = Dog PK: bioavailability of solid dispersions and API; type: in vivo; settings: plasma, beagle dogs (male, fasted), oral, dose 5 mg/kg
Procedure: Based on the solubility data from the solid dispersion formulation examples above, the API (administration form: 10 mg/mL suspension, API suspended in 0.5% CMC-Na solution) and solid dispersions prepared using PVP K30 (drug-excipient ratios of 1:3 and 1:4, respectively) were selected for dog PK experiments. The solid dispersions were filled into hard capsules and orally administered to beagle dogs (male, fasted, 3 dogs per group) at a dose of 5 mg/kg. Whole blood samples of 0.3 mL were collected at 0 min, 10 min, 15 min, 30 min, 1 h, 2 h, 3 h, 4 h, 6 h, 8 h, 12 h, and 24 h after administration. The blood samples were placed in anticoagulant tubes, gently inverted several times, and then kept on wet ice in preparation for centrifugation. Within 30 minutes after collection, the samples were centrifuged at about 2000 × g (force) at 4°C for 10 minutes to obtain plasma. The resulting plasma samples were immediately divided into two aliquots (about 75 µL each) and transferred to cryovials. The samples were maintained on wet ice throughout the processing and stored in a freezer at -75 ± 15°C until analysis. The concentrations of the test substance in the plasma samples were analyzed using an LC-MS/MS method. Table 50 Summary of Dog PK Data for SDD Formulations

[4] = Solubility of API in solvent combinations (visual dissolution); type: physicochemical; settings: organic solvent combinations of Table 2, organic solvent or mixture, thermodynamic from solid; solvent combinations of Table 2 (acetone/methanol, acetone/ethanol, with water or dichloromethane); read-out: solubility of API in the solvent combinations listed in Table 2
Procedure: The solvent compositions capable of simultaneously dissolving the compound of the present invention and the carrier materials are shown in Table 2. The detection method for the solubility of API in different solvent combinations is as follows: Weigh 20 mg of the compound of the present invention and add it to 4 mL of different solvents or solvent combinations, respectively. Gently shake and observe the dissolution phenomenon. If complete dissolution occurs, add a small amount of additional API to the above solution, continue shaking, and observe the dissolution phenomenon. […] All carrier materials listed in Table 2 are soluble in the selected solvents or solvent combinations. Table 2 Solvent Compositions Capable of Simultaneously Dissolving the Compound of the Present Invention and the Carrier

[5] = Solubility testing of solid dispersions in media with different pH values (shaker, 24 hours); type: physicochemical; settings: 0.1mol/L HCl
Procedure: (§1) Weigh an amount of powder (equivalent to 50 mg of API) from Examples 1-7 into a 10-mL vial, add 5 mL of media with different pH values, so that the theoretical concentration of API in the sample solution was about 10 mg/mL. Shake the vials in a shaker for 24 hours, and determine the solubility. During shaking, observe the dissolution phenomenon of the powder in the solution. If the solution becomes clear, add an additional amount of sample powder. Table 4 Solubility of Solid Dispersions Prepared Using Povidone in Different Media
Weigh an amount of powder (equivalent to 50 mg of API) from Examples 9-13 into a 10-mL vial, add a corresponding volume of media with different pH values, so that the theoretical concentration of API in the solution was about 10 mg/mL (the theoretical concentration of API in the sample solution of Example 13 was about 5 mg/mL). Shake the vials in a shaker for 24 hours, and sample at 4 h and 24 h to determine the solubility. During shaking, observe the dissolution phenomenon of the powder in the solution. If the solution becomes clear, add an additional amount of sample powder. Table 7 Solubility of Solid Dispersions Prepared Using HPMC in Different Media
as §1, with “Examples 14-16” for “Examples 1-7”, “add a corresponding volume” for “add 5 mL”, “and sample at 4 h and 24 h to” for “and”, “Table 9” for “Table 4”, “Using HPC” for “Using Povidone”
as §1, with “Examples 17-21” for “Examples 1-7”, “add a corresponding volume” for “add 5 mL”, “and sample at 4 h and 24 h to” for “and”, “Table 11” for “Table 4”, “Using Copovidone S630” for “Using Povidone”
Weigh an amount of powder (equivalent to 50 mg of API) from Examples 22-24 into a 10-mL vial, add a corresponding volume of media with different pH values, so that the theoretical concentration of API in the sample solution was about 10 mg/mL. Shake the vials in a shaker for 24 hours, and sample at 4 h and 24 h to determine solubility. Table 13 Solubility of Solid Dispersions Prepared Using HPMC AS in Different Media
Weigh an amount of powder(equivalent to 50 mg of API) from Examples 25-28 into a 10 mL vial, add a corresponding volume of media with different pH values, so that the theoretical concentration of API in the sample solution was about 10 mg/mL. Shake the vials in a shaker for 24 hours, and sample at 4 h and 24 h to determine the solubility. During shaking, observe the dissolution phenomenon of the powder in the solution. If the solution becomes clear, add an additional amount of sample powder. Table 15 Solubility of Solid Dispersions Prepared Using Polyethylene Glycol in Different Media […]

C/C=C/c1cc(Nc2cc(N3CCN(C)CC3)nc(Oc3cc(F)c4[nH]c(C)cc4c3F)n2)n[nH]1 [API]
Solubility Description ([1]; Acetone): Slightly soluble
Solubility Description ([1]; Acetonitrile): Slightly soluble
Solubility Description ([1]; Ethanol): Slightly soluble
Solubility Description ([1]; Ethyl acetate): Slightly soluble
Solubility Description ([1]; Isopropanol): Slightly soluble
Solubility Description ([1]; Methanol): Slightly soluble
Solubility Description ([1]; Propylene glycol): Slightly soluble
solubility at 24 h ([1]; Acetone): 5990 µg/mL (≈ 12.5 mM)
solubility at 24 h ([1]; Acetonitrile): 1220 µg/mL (≈ 2.54 mM)
solubility at 24 h ([1]; Ethanol): 5170 µg/mL (≈ 10.8 mM)
solubility at 24 h ([1]; Ethyl acetate): 4980 µg/mL (≈ 10.4 mM)
solubility at 24 h ([1]; Isopropanol): 2340 µg/mL (≈ 4.87 mM)
solubility at 24 h ([1]; Methanol): 8360 µg/mL (≈ 17.4 mM)
solubility at 24 h ([1]; Propylene glycol): 2220 µg/mL (≈ 4.62 mM)
AUC [2]: 59 ng·h/mL
Cmax [2]: 22 ng/mL
AUC [3]: 59 ng·h/mL
Cmax [3]: 22 ng/mL
Solubility [4]: > 5000 µg/mL
Solubility ([5]; 4h, API alone, sample concentration not given): 50 µg/mL (≈ 0.104 mM)
Solubility ([5]; 24h, API alone, sample concentration not given): 50 µg/mL (≈ 0.104 mM)
solubility at 2 h ([5]; simulated gastric fluid, thermodynamic from solid, 2h, API alone, sample concentration not given): 50 µg/mL (≈ 0.104 mM)
solubility at 4 h ([5]; simulated gastric fluid, thermodynamic from solid, 4h, sample Supersaturated): 50 µg/mL (≈ 0.104 mM)
solubility at 24 h ([5]; simulated gastric fluid, thermodynamic from solid, 24h, sample Supersaturated): 50 µg/mL (≈ 0.104 mM)
